From ChEMBL document CHEMBL4418303, “1-cyano-pyrrolidine derivatives as inhibitors of usp30” (2017)

Each compound was assayed against T1, Ubiquitin carboxyl-terminal hydrolase 30 (Homo sapiens, UniProt Q70CQ3) (assay: Inhibition of untagged human USP30 catalytic domain (57 to 517 residues) expressed in Escherichia coli using TAMRA labeled ubiquitin peptide as substrate preincubated for 30 min followed by substrate addition and measured after 2 hrs by fluorescence polarization assay).
T1 sequence (Q70CQ3 whole entry): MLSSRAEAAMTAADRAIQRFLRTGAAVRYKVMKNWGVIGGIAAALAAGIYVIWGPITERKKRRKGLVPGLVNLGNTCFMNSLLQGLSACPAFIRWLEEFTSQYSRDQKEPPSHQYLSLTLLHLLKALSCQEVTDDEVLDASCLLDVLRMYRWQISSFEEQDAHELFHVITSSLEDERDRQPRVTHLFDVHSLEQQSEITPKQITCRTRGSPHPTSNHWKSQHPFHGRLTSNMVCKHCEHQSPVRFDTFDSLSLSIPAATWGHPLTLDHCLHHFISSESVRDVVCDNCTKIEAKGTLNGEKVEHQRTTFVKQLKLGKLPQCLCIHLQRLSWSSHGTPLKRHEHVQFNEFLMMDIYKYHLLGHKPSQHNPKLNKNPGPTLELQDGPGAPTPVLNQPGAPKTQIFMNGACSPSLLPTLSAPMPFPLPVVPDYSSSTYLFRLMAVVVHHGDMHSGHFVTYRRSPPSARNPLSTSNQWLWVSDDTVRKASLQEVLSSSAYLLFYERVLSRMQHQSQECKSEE

Row | Compound | IC50
1 | CN1c2ccc(-c3ccccc3)cc2CN([C@@H]2CCN(C#N)C2)S1(=O)=O | 100 to 1000 nM
2 | N#CN1CC[C@@H](N2Cc3ccnc(N4CCOCC4)c3NS2(=O)=O)C1 | 1000 to 10000 nM
3 | CN1c2ccccc2CN([C@@H]2CCN(C#N)C2)S1(=O)=O | 1000 to 10000 nM
